# Target: FP receptor (Homo sapiens (Human), UniProt P43088)
# Experiment: In vitro test of inhibition of human FP receptor activity (PGF2α-induced calcium flux in FP-expressing CHEM1 cells)
# Format: cell-based
# Conditions: PGF2α 2 nM, some mean values of multiple determinations
# Outline: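 FP antagonism in FP-expressing CHEM1 cells loaded with Fluo-8. Compound preincubated 10 min at 37° C, then receptor stimulated with 2 nM (final) PGF2α in calcium-free Tyrode with 2 mM CaCl2.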
# Sequence of FP receptor (P43088 whole entry): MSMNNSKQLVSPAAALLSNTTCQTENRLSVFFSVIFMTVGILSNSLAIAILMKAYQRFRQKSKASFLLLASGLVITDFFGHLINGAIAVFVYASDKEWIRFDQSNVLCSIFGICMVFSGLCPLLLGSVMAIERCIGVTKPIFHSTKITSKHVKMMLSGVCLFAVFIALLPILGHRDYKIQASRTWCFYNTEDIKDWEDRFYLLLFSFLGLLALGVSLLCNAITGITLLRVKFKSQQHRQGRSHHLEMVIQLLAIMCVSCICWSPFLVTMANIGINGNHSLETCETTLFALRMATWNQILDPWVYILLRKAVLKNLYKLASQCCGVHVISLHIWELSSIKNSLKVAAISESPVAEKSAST
row,Structure (SMILES),IC50
1,"Cc1c(N2CCCCC2)nc2ccc(Br)cc2c1C(=O)NCC(CC(=O)O)c1c(F)cccc1Cl (single isomer, unassigned; (-)) [Example 2, (−)-4-({[6-Bromo-3-methyl-2-(piperidin-1-yl)quinolin-4-yl]carbonyl}amino)-3-(2-chloro-6-fluorophenyl)butanoic acid]",23 nM
2,"Cc1ccc(F)cc1C(CCC(=O)O)CNC(=O)c1c(C)c(N2CCCC(F)(F)C2)nc2ccc(Br)cc12 (single isomer, unassigned; (-)) [Example 213, (−)-5-({[6-Bromo-2-(3,3-difluoropiperidin-1-yl)-3-methylquinolin-4-yl]carbonyl}amino)-4-(5-fluoro-2-methylphenyl)pentanoic acid]",10 nM
3,"Cc1c(N2CCCC(C)C2)nc2ccc(Br)cc2c1C(=O)NCC(CCC(=O)O)c1ccccc1C(F)(F)F (stereo not drawn) [Example 125, 5-[({6-Bromo-3-methyl-2-[3-methylpiperidin-1-yl]quinolin-4-yl}carbonyl)amino]-4-[2-(trifluoromethyl)phenyl]pentanoic acid]",5.2 nM
4,"Cc1c(N2CCCC(F)(F)C2)nc2ccc(Br)cc2c1C(=O)NCC(CCC(=O)O)c1c(F)cccc1F (single isomer, unassigned; (-)) [Example 252, (−)-5-({[6-Bromo-2-(3,3-difluoropiperidin-1-yl)-3-methylquinolin-4-yl]carbonyl}amino)-4-(2,6-difluorophenyl)pentanoic acid]",9.4 nM
5,"Cc1c(N2CCCCC2)nc2ccc(Br)cc2c1C(=O)NCC(CCC(=O)O)c1ccccc1OC(F)(F)F (racemic) [Example 126, (+/−)-5-({[6-Bromo-3-methyl-2-(piperidin-1-yl)quinolin-4-yl]carbonyl}amino)-4-[2-(trifluoromethoxy)phenyl]pentanoic acid]",1.7 nM
6,"CCC1CCCN(c2nc3ccc(Br)cc3c(C(=O)NCC(CCC(=O)O)c3ccccc3Cl)c2C)C1 (single isomer, unassigned; (-)) [Example 59, (−)-5-[({6-Bromo-2-[3-ethylpiperidin-1-yl]-3-methylquinolin-4-yl}carbonyl)amino]-4-(2-chlorophenyl)pentanoic acid]",11 nM
7,"Cc1c(NCC(C)C)nc2ccc(Br)cc2c1C(=O)NCC(CCC(=O)O)c1ccccc1Cl (racemic) [Example 102, (+/−)-5-({[6-Bromo-2-(isobutylamino)-3-methylquinolin-4-yl]carbonyl}amino)-4-(2-chlorophenyl)pentanoic acid]",250 nM
8,"Cc1c(N2CCC[C@H]2C)nc2ccc(Br)cc2c1C(=O)NCC(CCC(=O)O)c1ccccc1Cl (single isomer, unassigned; (+)) [Example 82]",3.9 nM
9,"CCC1CCCN(c2nc3ccc(Br)cc3c(C(=O)NCC(CCC(=O)O)c3ccccc3OC(F)(F)F)c2C)C1 (stereo not drawn) [Example 139, 5-[({6-Bromo-2-[3-ethylpiperidin-1-yl]-3-methylquinolin-4-yl}carbonyl)amino]-4-[2-(trifluoromethoxy)phenyl]pentanoic acid]",1.5 nM
10,"Cc1c(N2CCCC2)nc2ccc(Br)cc2c1C(=O)NCC(CCC(=O)O)c1cc(F)ccc1F (single isomer, unassigned; (-)) [Example 260, (−)-5-({[6-Bromo-3-methyl-2-(pyrrolidin-1-yl)quinolin-4-yl]carbonyl}amino)-4-(2,5-difluorophenyl)pentanoic acid]",29 nM
11,"Cc1c(N2CCCC(F)C2)nc2ccc(Br)cc2c1C(=O)NCC(CCC(=O)O)c1ccccc1Cl (single isomer, unassigned; (+)) [Example 187, (+)-5-[({6-Bromo-2-[3-fluoropiperidin-1-yl]-3-methylquinolin-4-yl}carbonyl)amino]-4-(2-chlorophenyl)pentanoic acid]",24 nM
12,"Cc1c(N2CCCCC2)nc2ccc(Br)cc2c1C(=O)NCC(CCC(=O)O)c1cc(F)ccc1Cl (single isomer, unassigned; (-)) [Example 6, (−)-5-({[6-Bromo-3-methyl-2-(piperidin-1-yl)quinolin-4-yl]carbonyl}amino)-4-(2-chloro-5-fluorophenyl)pentanoic acid]",7.8 nM

# Reference: patent US11149018B2, “Substituted N-arylethyl-2-aminoquinoline-4-carboxamides and use thereof” (Bayer Aktiengesellschaft, priority 2017, dated 2021)
